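Cells were grown in 96-well plates and exposed to each compound for 48 hours at five concentrations; endpoints were interpolated linearly between bracketing concentrations, or set to the highest concentration if not reached. At the GI50, growth is halved.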 Calls of active or inactive are those of the source. Rule as the data show it: active = GI50 up to about 1.1 µM and inactive = higher.
Assays:
Assay in all cases: inhibition of tumour cell growth, NCI panel, 48 h
HL-60 = tested on: HL-60
OVCAR-5 = tested on: OVCAR-5
NCI/ADR-RES = tested on: NCI/ADR-RES
HOP-92 = tested on: HOP-92
M14 = tested on: M14
K562 = tested on: K562
SF-295 = tested on: SF-295
HCT-15 = tested on: HCT-15
SF-268 = tested on: SF-268
NCI-H460 = tested on: NCI-H460
NCI-H23 = tested on: NCI-H23
IGROV-1 = tested on: IGROV-1
PC-3 = tested on: PC-3
TK-10 = tested on: TK-10
SK-MEL-28 = tested on: SK-MEL-28
RXF 393 = tested on: RXF 393
Hs-578T = tested on: Hs-578T
SF-539 = tested on: SF-539
SK-MEL-5 = tested on: SK-MEL-5
NCI-H226 = tested on: NCI-H226
U-251 = tested on: U-251
SNB-75 = tested on: SNB-75
SW-620 = tested on: SW-620
SN12C = tested on: SN12C
NCI-H522 = tested on: NCI-H522
CCRF-CEM = tested on: CCRF-CEM
MOLT-4 = tested on: MOLT-4
DU-145 = tested on: DU-145
OVCAR-3 = tested on: OVCAR-3
A549 = tested on: A549
HCC 2998 = tested on: HCC 2998
Malme-3M = tested on: Malme-3M
HOP-62 = tested on: HOP-62
SNB-19 = tested on: SNB-19
COLO 205 = tested on: COLO 205
MDA-MB-231 = tested on: MDA-MB-231
HCT-116 = tested on: HCT-116
ACHN = tested on: ACHN
KM12 = tested on: KM12
A498 = tested on: A498
HT-29 = tested on: HT-29
MCF7 = tested on: MCF7
LOX IMVI = tested on: LOX IMVI
UO-31 = tested on: UO-31
SR = tested on: SR
RPMI-8226 = tested on: RPMI-8226
MDA-N = tested on: MDA-N
MDA-MB-435 = tested on: MDA-MB-435
SK-MEL-2 = tested on: SK-MEL-2
CAKI-1 = tested on: CAKI-1
786-0 = tested on: 786-0
T47D = tested on: T47D
UACC-257 = tested on: UACC-257
OVCAR-4 = tested on: OVCAR-4
OVCAR-8 = tested on: OVCAR-8
SK-OV-3 = tested on: SK-OV-3
EKVX = tested on: EKVX
UACC-62 = tested on: UACC-62

COC(=O)c1cc2c(cc1CC1Cc3cc4c(cc3C1)CCC4)CCC2
GI50 (HL-60): 15.3 µM (inactive)
GI50 (OVCAR-5): 43.5 µM (inactive)
GI50 (NCI/ADR-RES): > 100 µM (inactive)
GI50 (HOP-92): 27 µM (inactive)
GI50 (M14): 63.8 µM (inactive)
GI50 (K562): 25.8 µM (inactive)
GI50 (SF-295): 55 µM (inactive)
GI50 (HCT-15): 59.2 µM
GI50 (SF-268): 56.9 µM (inactive)
GI50 (NCI-H460): 51.1 µM (inactive)
GI50 (NCI-H23): 44.4 µM (inactive)
GI50 (IGROV-1): 53 µM (inactive)
GI50 (PC-3): 74.3 µM (inactive)
GI50 (TK-10): > 100 µM (inactive)
GI50 (SK-MEL-28): 19.5 µM (inactive)
GI50 (RXF 393): 34 µM (inactive)
GI50 (Hs-578T): 66.8 µM (inactive)
GI50 (SF-539): 79.4 µM (inactive)
GI50 (SK-MEL-5): 52.6 µM (inactive)
GI50 (NCI-H226): > 100 µM (inactive)
GI50 (U-251): 34.9 µM (inactive)
GI50 (SNB-75): 40.1 µM (inactive)
GI50 (SW-620): > 100 µM (inactive)
GI50 (SN12C): 79.1 µM (inactive)
GI50 (NCI-H522): 25.7 µM (inactive)
GI50 (CCRF-CEM): 16.9 µM (inactive)
GI50 (MOLT-4): 17.2 µM (inactive)
GI50 (DU-145): 84.7 µM (inactive)
GI50 (OVCAR-3): 38.6 µM (inactive)
GI50 (A549): 60.4 µM (inactive)
GI50 (HCC 2998): 22.6 µM (inactive)
GI50 (Malme-3M): 86.5 µM (inactive)
GI50 (HOP-62): > 100 µM (inactive)
GI50 (SNB-19): 93.3 µM (inactive)
GI50 (COLO 205): 40.5 µM (inactive)
GI50 (MDA-MB-231): 77.3 µM (inactive)
GI50 (HCT-116): 35.6 µM (inactive)
GI50 (ACHN): 43.4 µM (inactive)
GI50 (KM12): 68.7 µM (inactive)
GI50 (A498): > 100 µM (inactive)
GI50 (HT-29): 36.3 µM (inactive)
GI50 (MCF7): 25.4 µM (inactive)
GI50 (LOX IMVI): 24.3 µM (inactive)
GI50 (UO-31): 32 µM (inactive)
GI50 (SR): 19.1 µM (inactive)
GI50 (RPMI-8226): 21.8 µM (inactive)
GI50 (MDA-N): 36.1 µM (inactive)
GI50 (MDA-MB-435): 42.6 µM (inactive)
GI50 (SK-MEL-2): 24.3 µM (inactive)
GI50 (CAKI-1): 90.6 µM (inactive)
GI50 (786-0): > 100 µM (inactive)
GI50 (T47D): 37.5 µM (inactive)
GI50 (UACC-257): 25.8 µM (inactive)
GI50 (OVCAR-4): 84.7 µM (inactive)
GI50 (OVCAR-8): > 100 µM (inactive)
GI50 (SK-OV-3): > 100 µM (inactive)
GI50 (EKVX): 52.6 µM (inactive)

CC(C)(C)NCc1cc(Nc2ccnc3cc(Cl)ccc23)cc(-c2ccc(Cl)cc2)c1O
GI50 (HL-60): 1.97 µM (inactive)
GI50 (OVCAR-5): 4.68 µM (inactive)
GI50 (NCI/ADR-RES): 3.05 µM (inactive)
GI50 (HOP-92): 1.87 µM (inactive)
GI50 (M14): 2.18 µM (inactive)
GI50 (K562): 1.04 µM (active)
GI50 (SF-295): 2.5 µM (inactive)
GI50 (HCT-15): 2.44 µM
GI50 (SF-268): 3.48 µM (inactive)
GI50 (NCI-H460): 2.03 µM (inactive)
GI50 (NCI-H23): 3.64 µM (inactive)
GI50 (IGROV-1): 2.02 µM (inactive)
GI50 (PC-3): 1.99 µM (inactive)
GI50 (TK-10): 2.43 µM (inactive)
GI50 (UACC-62): 1.92 µM (inactive)
GI50 (SK-MEL-28): 1.72 µM (inactive)
GI50 (RXF 393): 1.79 µM (inactive)
GI50 (Hs-578T): 3.43 µM (inactive)
GI50 (SF-539): 1.85 µM (inactive)
GI50 (SK-MEL-5): 1.77 µM (inactive)
GI50 (NCI-H226): 6.12 µM (inactive)
GI50 (U-251): 2.59 µM (inactive)
GI50 (SNB-75): 2.02 µM (inactive)
GI50 (SW-620): 2.26 µM (inactive)
GI50 (SN12C): 3.11 µM (inactive)
GI50 (NCI-H522): 3.65 µM (inactive)
GI50 (CCRF-CEM): 0.809 µM (active)
GI50 (MOLT-4): 1.82 µM (inactive)
GI50 (DU-145): 4.53 µM (inactive)
GI50 (OVCAR-3): 2.66 µM (inactive)
GI50 (A549): 5.4 µM (inactive)
GI50 (HCC 2998): 2.21 µM (inactive)
GI50 (Malme-3M): 1.84 µM (inactive)
GI50 (HOP-62): 2.06 µM (inactive)
GI50 (SNB-19): 4.44 µM (inactive)
GI50 (COLO 205): 1.81 µM (inactive)
GI50 (MDA-MB-231): 3 µM (inactive)
GI50 (HCT-116): 2.08 µM (inactive)
GI50 (ACHN): 4.29 µM (inactive)
GI50 (KM12): 3.5 µM (inactive)
GI50 (A498): 2.94 µM (inactive)
GI50 (HT-29): 1.87 µM (inactive)
GI50 (MCF7): 1.6 µM (inactive)
GI50 (LOX IMVI): 2.17 µM (inactive)
GI50 (UO-31): 4.17 µM (inactive)
GI50 (SR): 1.21 µM (inactive)
GI50 (RPMI-8226): 1.69 µM (inactive)
GI50 (MDA-N): 1.68 µM (inactive)
GI50 (MDA-MB-435): 1.91 µM (inactive)
GI50 (SK-MEL-2): 2.24 µM (inactive)
GI50 (CAKI-1): 2.99 µM (inactive)
GI50 (786-0): 1.87 µM (inactive)
GI50 (T47D): 3.27 µM (inactive)
GI50 (UACC-257): 2.03 µM (inactive)
GI50 (OVCAR-4): 3.36 µM (inactive)
GI50 (OVCAR-8): 3.81 µM (inactive)
GI50 (SK-OV-3): 3.07 µM (inactive)
GI50 (EKVX): 3.72 µM (inactive)

COC1/C=C\OC2(C)Oc3c(C)c(O)c4c(O)c(c(/C=N\OCCCc5ccccc5)c(O)c4c3C2=O)NC(=O)/C(C)=C\C=C/C(C)C(O)C(C)C(O)C(C)C(OC(C)=O)C1C (stereo unspecified)
GI50 (HL-60): 3.01 µM (inactive)
GI50 (OVCAR-5): 6.85 µM (inactive)
GI50 (NCI/ADR-RES): 3.66 µM (inactive)
GI50 (HOP-92): 2.15 µM (inactive)
GI50 (M14): 2.71 µM (inactive)
GI50 (K562): 4.16 µM (inactive)
GI50 (SF-295): 4.72 µM (inactive)
GI50 (HCT-15): 3.16 µM
GI50 (SF-268): 4.93 µM (inactive)
GI50 (NCI-H460): 3.49 µM (inactive)
GI50 (NCI-H23): 3.21 µM (inactive)
GI50 (IGROV-1): 2.39 µM (inactive)
GI50 (PC-3): 3.18 µM (inactive)
GI50 (TK-10): 3.23 µM (inactive)
GI50 (UACC-62): 2.79 µM (inactive)
GI50 (SK-MEL-28): 2.06 µM (inactive)
GI50 (RXF 393): 2.9 µM (inactive)
GI50 (Hs-578T): 6.31 µM (inactive)
GI50 (SF-539): 2.93 µM (inactive)
GI50 (SK-MEL-5): 1.78 µM (inactive)
GI50 (NCI-H226): 2.13 µM (inactive)
GI50 (U-251): 4.36 µM (inactive)
GI50 (SNB-75): 2.62 µM (inactive)
GI50 (SW-620): 4.36 µM (inactive)
GI50 (SN12C): 1.81 µM (inactive)
GI50 (NCI-H522): 3.54 µM (inactive)
GI50 (CCRF-CEM): 3.08 µM (inactive)
GI50 (MOLT-4): 3.46 µM (inactive)
GI50 (DU-145): 4.71 µM (inactive)
GI50 (OVCAR-3): 3.07 µM (inactive)
GI50 (A549): 3.83 µM (inactive)
GI50 (HCC 2998): 11.4 µM (inactive)
GI50 (Malme-3M): 3.54 µM (inactive)
GI50 (HOP-62): 2.59 µM (inactive)
GI50 (SNB-19): 6.32 µM (inactive)
GI50 (COLO 205): 1.78 µM (inactive)
GI50 (MDA-MB-231): 2.25 µM (inactive)
GI50 (HCT-116): 2.3 µM (inactive)
GI50 (ACHN): 2.56 µM (inactive)
GI50 (KM12): 4.47 µM (inactive)
GI50 (A498): 6.93 µM (inactive)
GI50 (HT-29): 3.59 µM (inactive)
GI50 (MCF7): 1.17 µM (inactive)
GI50 (LOX IMVI): 3.33 µM (inactive)
GI50 (SR): 2.81 µM (inactive)
GI50 (MDA-N): 3.44 µM (inactive)
GI50 (MDA-MB-435): 3.25 µM (inactive)
GI50 (SK-MEL-2): 2.18 µM (inactive)
GI50 (CAKI-1): 4.32 µM (inactive)
GI50 (786-0): 3.24 µM (inactive)
GI50 (T47D): 4.45 µM (inactive)
GI50 (UACC-257): 5.74 µM (inactive)
GI50 (OVCAR-4): 3.08 µM (inactive)
GI50 (OVCAR-8): 4.9 µM (inactive)
GI50 (SK-OV-3): 4.42 µM (inactive)
GI50 (EKVX): 4.52 µM (inactive)
